Assay results: patent publication US9877980B2, “Method and composition for treatment or prevention of type 2 diabetes and hyperlipidemia” (Chun-Ching Shih, priority 2016, dated 2018)
Marks after values point to notes of the source that are not given here.

Assays:
[1] = tested on: C57BL/6J mice on high-fat diet (HFD); test: Absolute tissue weight, body weight, weight gain and food intake in HFD mice; format: in vivo; conditions: 4 weeks
Experimental: (§1) The following experiment was performed and approved by the guidelines of the Institutional Animal Care and Use Committee of Central Taiwan University of Science and Technology. The 4-week old male C57BL/6J mice (total amount n=63) were purchased from the National Laboratory Animal Breeding and Research Center (Taipei, Taiwan). After acclimatization for one week, all of the mice were divided randomly into the control (CON) group and the high-fat diet (HFD) group. For the following 12 weeks, the CON group (n=9) was kept on a low-fat diet (Diet 12450B, Research Diets, Inc., New Brunswick, N.J., USA), while the HFD group (n=54) was exposed to a high-fat diet (Diet 12451, Research Diets, New Brunswick, N.J., USA). The low-fat diet was composed of protein 20%, carbohydrate 70% and fat 10%, whereas the high-fat diet was composed of protein 20%, carbohydrate 35%, and fat 45% (of total energy, % kcal). After HFD exposure for 8 weeks, the HFD group was further randomly subdivided into 6 groups (n=9 per group) to receive different treatments by oral gavage once daily for four weeks and on HFD. […] The HF+B1, HF+B2, and […] are collectively termed BB-treated HFD groups in the following examples. The CON mice were administered vehicle. After dosing for 4 weeks, the mice were given no food at night and sacrificed after 12 h of fasting on the next day. All of the individual tissues were collected and weighed, and portions were instantly frozen using liquid nitrogen and kept at −80° C. for subsequent target gene analysis. Blood samples (0.8 mL) were collected for analysis of blood parameters.
Body weight of each mouse was monitored and measured daily at the same time throughout the experimentation. The difference in body weight between two consecutive days is defined as body weight gain. The food pellets for mice were weighed and put into the food container. Unconsumed pellets of high-fat diet were discarded each day and fresh pellets of high-fat diet were provided to ensure food quality throughout the experimentation. The high-fat food pellets were stored at 4° C.

11β-HSD1 = test: Semi-quantitative RT-PCR of liver mRNA: 11β-HSD1; format: in vivo; conditions: HFD mice, 4 weeks, vs HF group
Experimental: as §1, with “For the following 12 weeks, the CON group (n=9) was kept on a low-fat diet (Diet 12450B, Research Diets, Inc., New Brunswick, N.J., USA), while the HFD group (n=54) was exposed to a high-fat diet (Diet 12451, Research Diets, New Brunswick, N.J., USA). The low-fat diet was composed of protein 20%, carbohydrate 70% and fat 10%, whereas the high-fat diet was composed of protein 20%, carbohydrate 35%, and fat 45% (of total energy, % kcal).” left out
Total RNA from liver tissue of mice was isolated with a Trizol Reagent (Molecular Research Center, Inc., Cincinnati, Ohio, USA) according to the manufacturer's instructions. The integrity of the extracted total RNA was examined by 2% agarose gel electrophoresis, and the RNA concentration was determined by the ultraviolet (UV) light absorbency at 260 nm and 280 nm (Spectrophotometer U-2800A, Hitachi). The quality of the RNA was confirmed by ethidium bromide staining of 18S and 28S ribosomal RNA after electrophoresis on 2% agarose gel containing 6% formaldehyde.
Levels of mRNA of genes of interest were quantified by semi-quantitative reverse transcription polymerase chain reaction (RT-PCR). […] PCR products were analyzed by 2% agarose gels and stained with ethidium bromide.

OCC1O[C@@H](O[C@@H]2Cc3c(O)cc(O)cc3O[C@@H]2c2ccc(O)c(O)c2)C(O)C(O)[C@@H]1O (single isomer, unassigned; (-)) [compound of formula I, (−)-epicatechin-3-O-β-D-allopyranoside]
Absolute tissue weight BAT ([1]; 10 mg/kg/day oral gavage): 0.168 ± 0.011 g | Absolute tissue weight EWAT ([1]; 10 mg/kg/day oral gavage): 0.906 ± 0.105^d g | Absolute tissue weight Liver ([1]; 10 mg/kg/day oral gavage): 0.899 ± 0.036 g | Absolute tissue weight MWAT ([1]; 10 mg/kg/day oral gavage): 0.293 ± 0.018 g | Absolute tissue weight RWAT ([1]; 10 mg/kg/day oral gavage): 0.280 ± 0.043^d g | Absolute tissue weight Skeletal muscle ([1]; 10 mg/kg/day oral gavage): 0.873 ± 0.060 g | Absolute tissue weight Visceral fat ([1]; 10 mg/kg/day oral gavage): 1.273 ± 0.147^d g | Body weight ([1]; 10 mg/kg/day oral gavage): 27.85 ± 1.04 g | Food intake ([1]; 10 mg/kg/day oral gavage): 2.08 ± 0.05 g/day/mouse | Weight gain ([1]; 10 mg/kg/day oral gavage): 0.40 ± 0.28 g | Absolute tissue weight BAT ([1]; 20 mg/kg/day oral gavage): 0.156 ± 0.017 g | Absolute tissue weight EWAT ([1]; 20 mg/kg/day oral gavage): 0.902 ± 0.084^d g | Absolute tissue weight Liver ([1]; 20 mg/kg/day oral gavage): 0.866 ± 0.036 g | Absolute tissue weight MWAT ([1]; 20 mg/kg/day oral gavage): 0.267 ± 0.021 g | Absolute tissue weight RWAT ([1]; 20 mg/kg/day oral gavage): 0.263 ± 0.034^f g | Absolute tissue weight Skeletal muscle ([1]; 20 mg/kg/day oral gavage): 0.813 ± 0.077 g | Absolute tissue weight Visceral fat ([1]; 20 mg/kg/day oral gavage): 1.199 ± 0.104^e g | Body weight ([1]; 20 mg/kg/day oral gavage): 27.88 ± 1.14 g | Food intake ([1]; 20 mg/kg/day oral gavage): 2.03 ± 0.03 g/day/mouse | Weight gain ([1]; 20 mg/kg/day oral gavage): 0.61 ± 0.43 g | Absolute tissue weight BAT ([1]; 40 mg/kg/day oral gavage): 0.144 ± 0.010 g | Absolute tissue weight EWAT ([1]; 40 mg/kg/day oral gavage): 0.936 ± 0.075^d g | Absolute tissue weight Liver ([1]; 40 mg/kg/day oral gavage): 0.848 ± 0.028 g | Absolute tissue weight MWAT ([1]; 40 mg/kg/day oral gavage): 0.236 ± 0.030 g | Absolute tissue weight RWAT ([1]; 40 mg/kg/day oral gavage): 0.233 ± 0.026^f g | Absolute tissue weight Skeletal muscle ([1]; 40 mg/kg/day oral gavage): 1.156 ± 0.102^d g | Absolute tissue weight Visceral fat ([1]; 40 mg/kg/day oral gavage): 1.198 ± 0.075^e g | Body weight ([1]; 40 mg/kg/day oral gavage): 27.15 ± 0.84 g | Food intake ([1]; 40 mg/kg/day oral gavage): 2.02 ± 0.03 g/day/mouse | Weight gain ([1]; 40 mg/kg/day oral gavage): −0.05 ± 0.11^d g | liver mRNA level of 11β-HSD1 (11β-HSD1; 10 mg/kg/day oral gavage): significantly reduced | liver mRNA level of 11β-HSD1 (11β-HSD1; 20 mg/kg/day oral gavage): significantly reduced | liver mRNA level of 11β-HSD1 (11β-HSD1; 40 mg/kg/day oral gavage): significantly reduced
